# Legend:
# RH-18 (Rhabdomyosarcoma) [1] = experiment: combination Emax (second highest fraction inhibited in the dose matrix, 72 h); higher = more inhibition; extreme values may be limits of the assay
# Method in brief: (§1)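 After 24 hours at 37°C and 5% CO2 in 1536-well plates, cells in DMEM/F12 or RPMI plus 10% FBS received two-drug dose matrices for 72 hours. Viability came from CellTiter-Glo 2.0 luminescence and was scaled as inhibition, anchored at 0 by vehicle wells and at 1 by blank wells. Combination Emax is taken as the second-highest inhibition in the matrix, and Bliss excess as the observed combination effect less EA + EB − EA·EB, with EA and EB the single-agent effects.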
# SIMA (Neuroblastoma) [2] = experiment: as above
# Method in brief: as §1
# RH-18 (Rhabdomyosarcoma) [3] = experiment: Bliss excess, mean over the matrix (fraction); higher = more synergy
# Method in brief: as §1
# [4] = tested on: SW626 (Colorectal Carcinoma); experiment: as above
# Method in brief: as §1
# [5] = tested on: NCI-H747 (Colorectal Carcinoma); experiment: as above
# Method in brief: as §1
# SIMA (Neuroblastoma) [6] = experiment: as above
# Method in brief: as §1
# [7] = tested on: OC-314 (Ovarian Carcinoma); experiment: as above
# Method in brief: as §1
# [8] = tested on: MHH-PREB-1 (B-Cell Non-Hodgkin's Lymphoma); experiment: as above
# Method in brief: as §1
# [9] = tested on: SU-DHL-6 (B-Cell Non-Hodgkin's Lymphoma); experiment: as above
# Method in brief: as §1
# [10] = tested on: TE-4 (Esophageal Squamous Cell Carcinoma); experiment: as above
# Method in brief: as §1
# [11] = tested on: HCC-15 (Squamous Cell Lung Carcinoma); experiment: as above
# Method in brief: as §1
# [12] = tested on: SW1116 (Colorectal Carcinoma); experiment: as above
# Method in brief: as §1
# 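For Bliss excess, mean over the matrix in this document: after 72 h of two-drug dosing.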
Structure (SMILES),combination Emax (RH-18 (Rhabdomyosarcoma) [1]),combination Emax (SIMA (Neuroblastoma) [2]),Bliss excess (RH-18 (Rhabdomyosarcoma) [3]),Bliss excess [4],Bliss excess [5],Bliss excess (SIMA (Neuroblastoma) [6]),Bliss excess [7],Bliss excess [8],Bliss excess [9],Bliss excess [10],Bliss excess [11],Bliss excess [12]
"Cc1cc2ncnn2cc1Nc1ncc2c(n1)n(C1CCOCC1)c(=O)n2C [AZD7648] + C[C@@H]1COCCN1C2=NC(=NC(=C2)C3(CC3)[S@](=N)(=O)C)C4=C5C=CNC5=NC=C4 [AZD6738] (first compound max 10 µM, 7x7, partner max 10 µM)",0.365,0.904,0.0727,0.0302,0.0005,0.0326,0.0565,0.0336,-0.0598,0.054,0.0093,0.0285
"CN(C)CCCOc1ccc(-c2ccc3ncc4c(c3c2)n(C2CCOCC2)c(=O)n4C)cn1 [AZD0156] + C[C@@H]1COCCN1C2=NC(=NC(=C2)C3(CC3)[S@](=N)(=O)C)C4=C5C=CNC5=NC=C4 [AZD6738] (first compound max 1 µM, 7x7, partner max 10 µM)",0.343,0.9,-0.0312,-0.0214,-0.0103,0.074,0.0095,0.0147,0.0136,0.0507,-0.0021,-0.034
"COc1cccc(OCCCN)c1-c1cc(Nc2cnc(C#N)cn2)n[nH]1 [Prexasertib] + O=C(c1cc(Cc2n[nH]c(=O)c3ccccc23)ccc1F)N1CCN(C(=O)C2CC2)CC1 [Olaparib] (first compound max 1 µM, 7x7, partner max 10 µM)",0.327,0.97,-0.0295,-0.074,0.0024,-0.0728,-0.0616,-0.125,0.0089,0.015,0.0101,-0.0415
"CCN(CCO)CCCOc1ccc2c(Nc3cc(CC(=O)Nc4cccc(F)c4)[nH]n3)ncnc2c1 [AZD2811] + O=C(c1cc(Cc2n[nH]c(=O)c3ccccc23)ccc1F)N1CCN(C(=O)C2CC2)CC1 [Olaparib] (first compound max 1 µM, 7x7, partner max 10 µM)",0.257,0.213,0.0097,-0.0134,0.03,0.0206,0.0254,0.0032,0.0252,0.0049,-0.0123,-0.0008
"Cc1cc2ncnn2cc1Nc1ncc2c(n1)n(C1CCOCC1)c(=O)n2C [AZD7648] + O=C(c1cc(Cc2n[nH]c(=O)c3ccccc23)ccc1F)N1CCN(C(=O)C2CC2)CC1 [Olaparib] (first compound max 10 µM, 7x7, partner max 10 µM)",0.182,0.192,-0.0417,-0.0584,-0.0465,-0.02,-0.0164,-0.026,-0.0263,0.0061,-0.0059,-0.0421
"COc1cc2c(cc1OCCCCCOc1cc3c(cc1OC)C(=O)N1C=C(C)C[C@H]1C=N3)N=C[C@@H]1CC(C)=CN1C2=O [SG3199] + O=C(c1cc(Cc2n[nH]c(=O)c3ccccc23)ccc1F)N1CCN(C(=O)C2CC2)CC1 [Olaparib] (first compound max 0.001 µM, 7x7, partner max 10 µM)",0.174,0.421,-0.0378,-0.0362,-0.0269,-0.0214,-0.036,-0.0025,0.0075,-0.0319,-0.0166,-0.0356
"CCN(CCO)CCCOc1ccc2c(Nc3cc(CC(=O)Nc4cccc(F)c4)[nH]n3)ncnc2c1 [AZD2811] + C[C@@H]1COCCN1C2=NC(=NC(=C2)C3(CC3)[S@](=N)(=O)C)C4=C5C=CNC5=NC=C4 [AZD6738] (first compound max 1 µM, 7x7, partner max 10 µM)",0.344,0.766,-0.0336,-0.0724,-0.044,-0.0332,0.0052,-0.0608,0.0131,-0.047,-0.0238,-0.0234
"COc1cccc(OCCCN)c1-c1cc(Nc2cnc(C#N)cn2)n[nH]1 [Prexasertib] + CN(C)CCCOc1ccc(-c2ccc3ncc4c(c3c2)n(C2CCOCC2)c(=O)n4C)cn1 [AZD0156] (first compound max 1 µM, 7x7, partner max 1 µM)",0.426,1,-0.0006,-0.0035,-0.0095,0.0111,0.009,-0.0167,0.0382,-0.0049,-0.0156,-0.0253
"C[C@@H]1COCCN1c1cc(C2([S@](C)(=N)=O)CC2)nc(-c2ccnc3[nH]ccc23)n1 [AZD6738] + O=C(c1cc(Cc2n[nH]c(=O)c3ccccc23)ccc1F)N1CCN(C(=O)C2CC2)CC1 [Olaparib] (first compound max 10 µM, 7x7, partner max 10 µM)",0.406,0.642,0.012,-0.0022,0.0096,-0.0498,0.0247,-0.0405,-0.0124,0.0082,0.0025,-0.0228
"CCN(CCO)CCCOc1ccc2c(Nc3cc(CC(=O)Nc4cccc(F)c4)[nH]n3)ncnc2c1 [AZD2811] + C=CCn1c(=O)c2cnc(Nc3ccc(N4CCN(C)CC4)cc3)nc2n1-c1cccc(C(C)(C)O)n1 [AZD1775] (first compound max 1 µM, partner max 1 µM)",0.245,0.855,-0.0471,-0.0443,-0.0538,-0.0113,0.0976,-0.0254,0.0537,-0.0057,-0.0049,-0.0275
"COc1cccc(OCCCN)c1-c1cc(Nc2cnc(C#N)cn2)n[nH]1 [Prexasertib] + C=CCn1c(=O)c2cnc(Nc3ccc(N4CCN(C)CC4)cc3)nc2n1-c1cccc(C(C)(C)O)n1 [AZD1775] (first compound max 1 µM, partner max 1 µM)",0.492,0.993,0.154,0.0304,0.0623,0.0181,0.0884,0.0729,0.25,0.0905,0.0293,0.0689
"CN(C)CCCOc1ccc(-c2ccc3ncc4c(c3c2)n(C2CCOCC2)c(=O)n4C)cn1 [AZD0156] + CCN(CCO)CCCOc1ccc2c(Nc3cc(CC(=O)Nc4cccc(F)c4)[nH]n3)ncnc2c1 [AZD2811] (first compound max 1 µM, 7x7, partner max 1 µM)",0.136,0.131,-0.0253,-0.0392,-0.02,-0.0085,0.0078,0.0053,-0.0026,-0.0129,-0.0506,-0.0339
"CN(C)CCCOc1ccc(-c2ccc3ncc4c(c3c2)n(C2CCOCC2)c(=O)n4C)cn1 [AZD0156] + C=CCn1c(=O)c2cnc(Nc3ccc(N4CCN(C)CC4)cc3)nc2n1-c1cccc(C(C)(C)O)n1 [AZD1775] (first compound max 1 µM, partner max 1 µM)",0.337,0.873,-0.0645,-0.0576,-0.0309,-0.006,-0.0141,0.0036,-0.0384,-0.0599,-0.0346,-0.0336
"Cc1cc2ncnn2cc1Nc1ncc2c(n1)n(C1CCOCC1)c(=O)n2C [AZD7648] + C=CCn1c(=O)c2cnc(Nc3ccc(N4CCN(C)CC4)cc3)nc2n1-c1cccc(C(C)(C)O)n1 [AZD1775] (first compound max 10 µM, partner max 1 µM)",0.426,0.941,0.0278,0.0341,-0.0108,0.0406,0.0579,0.028,-0.0816,-0.079,0.0339,-0.0172
